Reference: BindingDB's records for doi:10.1021/jm031121n (Novo Nordisk, 2004)

Legend:
[1] = target: Glycogen phosphorylase, liver form (Sus scrofa); assay: In vitro inhibition of pig liver Glycogen phosphorylase A.
[2] = target: Glycogen phosphorylase, muscle form (Oryctolagus cuniculus) (UniProt P00489); assay: Inhibition of Rabbit muscle glycogen phosphorylase B.
[3] = Inhibitory activity against rabbit muscle glycogen phosphorylase a in the absence of AMP
[4] = target: Glycogen phosphorylase, muscle form (Oryctolagus cuniculus) (UniProt P00489); assay: Inhibitory activity against rabbit Muscle glycogen phosphorylase b

Glycogen phosphorylase, muscle form (Oryctolagus cuniculus), sequence (P00489 whole entry, looked up): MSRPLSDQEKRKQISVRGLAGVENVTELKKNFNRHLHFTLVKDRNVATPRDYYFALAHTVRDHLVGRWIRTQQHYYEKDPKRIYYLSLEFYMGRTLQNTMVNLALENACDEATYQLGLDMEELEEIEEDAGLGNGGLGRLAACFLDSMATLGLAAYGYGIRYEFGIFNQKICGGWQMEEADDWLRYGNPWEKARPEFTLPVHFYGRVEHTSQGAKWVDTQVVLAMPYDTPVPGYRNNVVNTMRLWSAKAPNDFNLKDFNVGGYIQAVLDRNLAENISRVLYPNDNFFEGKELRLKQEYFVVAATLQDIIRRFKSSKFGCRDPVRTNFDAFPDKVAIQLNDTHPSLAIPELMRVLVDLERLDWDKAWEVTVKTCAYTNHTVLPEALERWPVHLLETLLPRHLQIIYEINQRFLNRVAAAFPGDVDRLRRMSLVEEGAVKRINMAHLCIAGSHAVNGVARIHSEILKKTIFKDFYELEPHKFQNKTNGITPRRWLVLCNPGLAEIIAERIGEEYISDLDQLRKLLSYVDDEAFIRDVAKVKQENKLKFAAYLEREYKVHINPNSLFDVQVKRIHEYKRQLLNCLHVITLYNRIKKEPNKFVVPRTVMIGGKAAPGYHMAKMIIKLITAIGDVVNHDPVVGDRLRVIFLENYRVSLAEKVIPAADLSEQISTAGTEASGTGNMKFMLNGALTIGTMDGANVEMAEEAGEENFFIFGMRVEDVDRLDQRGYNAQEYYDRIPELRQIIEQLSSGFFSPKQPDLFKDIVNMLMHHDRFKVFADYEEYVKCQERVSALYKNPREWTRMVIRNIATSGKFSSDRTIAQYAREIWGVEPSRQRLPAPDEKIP

Row | SMILES | IC50 [1] [nM] | other results
1 | Cc1cc(Oc2ccc(C(=O)O)c(C(=O)O)c2)c(NC(=O)c2cccc([N+](=O)[O-])c2)cc1NC(=O)c1cccc([N+](=O)[O-])c1 [4-[5-Methyl-2,4-bis-(3-nitro-benzoylamino)-phenoxy]-phthalic acid] | 700 | 
2 | COc1cccc(C(=O)Nc2ccccc2Oc2ccc(C(=O)O)c(C(=O)O)c2)c1 [4-[2-(3-Methoxy-benzoylamino)-phenoxy]-phthalic acid] |  | IC50 [2]: 50000 nM
3 | O=C(Nc1ccccc1Oc1ccc(C(=O)O)c(C(=O)O)c1)c1ccccc1 [4-(2-Benzoylamino-phenoxy)-phthalic acid] | > 200000 | 
4 | CCN1C(C)=C(C(=O)OC(C)C)[C@@H](c2ccccc2)C(C(=O)O)=C1C(=O)O [(S)-1-Ethyl-6-methyl-4-phenyl-1,4-dihydro-pyridine-2,3,5-tricarboxylic acid 5-isopropyl ester] |  | Ki [3]: 11 nM
5 | CC(=O)c1cccc(C(=O)Nc2ccccc2Oc2ccc(C(=O)O)c(C(=O)O)c2)c1 [4-[2-(3-Acetyl-benzoylamino)-phenoxy]-phthalic acid] |  | IC50 [2]: 50000 nM
6 | O=C(Nc1ccccc1Oc1ccc(C(=O)O)c(C(=O)O)c1)c1ccc(Cl)cc1 [4-[2-(4-Chloro-benzoylamino)-phenoxy]-phthalic acid] | > 200000 | 
7 | O=C1NC(=O)[C@]2(C[C@H](CO)[C@@H](O)[C@H](O)[C@H]2O)N1 [(6S,7S,8R,9R)-6,7,8-Trihydroxy-9-hydroxymethyl-1,3-diaza-spiro[4.5]decane-2,4-dione] |  | Ki [4]: 3000 nM
8 | O=C(O)c1cccc(C(=O)Nc2ccccc2Oc2ccc(C(=O)O)c(C(=O)O)c2)c1 [4-[2-(3-Carboxy-benzoylamino)-phenoxy]-phthalic acid] | > 100000 | IC50 [2]: > 200000 nM

More lines, main results first:

Row | IC50 [1] [nM] | SMILES | other results
9 | > 30000 | Cc1ccc(C(=O)Nc2ccccc2Oc2ccc(C(=O)O)c(C(=O)O)c2)cc1 [4-[2-(4-Methyl-benzoylamino)-phenoxy]-phthalic acid] | 
10 | > 50000 | O=C(Nc1ccccc1Oc1ccc(C(=O)O)c(C(=O)O)c1)c1ccc(Cl)c(Cl)c1 [4-[2-(3,4-Dichloro-benzoylamino)-phenoxy]-phthalic acid] | 
11 | 120 | O=C(Nc1ccc(Oc2ccc(C(=O)O)c(C(=O)O)c2)c(NC(=O)c2cccc([N+](=O)[O-])c2)c1)c1ccccc1 [4-[4-Benzoylamino-2-(3-nitro-benzoylamino)-phenoxy]-phthalic acid] | 
12 | 2500 | O=C(Nc1cc(F)ccc1Oc1ccc(C(=O)O)c(C(=O)O)c1)c1cccc([N+](=O)[O-])c1 [4-[4-Fluoro-2-(3-nitro-benzoylamino)-phenoxy]-phthalic acid] | 
13 | 450 | Cc1ccc(Oc2ccc(C(=O)O)c(C(=O)O)c2)c(NC(=O)c2cccc([N+](=O)[O-])c2)c1 [4-[4-Methyl-2-(3-nitro-benzoylamino)-phenoxy]-phthalic acid] | 
14 | 140 | CC(=O)Nc1ccc(Oc2ccc(C(=O)O)c(C(=O)O)c2)c(NC(=O)c2cccc([N+](=O)[O-])c2)c1 [4-[4-Acetylamino-2-(3-nitro-benzoylamino)-phenoxy]-phthalic acid] | 
15 | 250 | O=C(Nc1cc(Br)ccc1Oc1ccc(C(=O)O)c(C(=O)O)c1)c1cccc([N+](=O)[O-])c1 [4-[4-Bromo-2-(3-nitro-benzoylamino)-phenoxy]-phthalic acid] | 
16 | 2200 | N#Cc1ccc(Oc2ccc(C(=O)O)c(C(=O)O)c2)c(NC(=O)c2cccc([N+](=O)[O-])c2)c1 [4-[4-Cyano-2-(3-nitro-benzoylamino)-phenoxy]-phthalic acid] | 
17 | 1800 | O=C(Nc1cc(C(F)(F)F)ccc1Oc1ccc(C(=O)O)c(C(=O)O)c1)c1cccc([N+](=O)[O-])c1 [4-[2-(3-Nitro-benzoylamino)-4-trifluoromethyl-phenoxy]-phthalic acid] | 
